The record followed here is US5116863A, “Dibenz[b,e]oxepin derivative and pharmaceutical compositions thereof” (Kyowa Hakko Kogyo Co., Ltd., priority 1986, dated 1992).

Read-outs that look alike come from different tables or passages of the source.

In one data set the test system is dd, male mice. The format is in vivo. Here is the method: Groups each consisting of 3 dd, male mice having body weights of 20±1 g were used, and the compound of the present invention was administered orally (po: 300 mg/kg) or intraperitoneally (ip: 100 mg/kg).
For data set [1], the system named is homologous PCA (passive cutaneous anaphlaxis) of rats. In words: Homologous PCA (passive cutaneous anaphylaxis) test of rats for 48 hours, oral (antiallergic activity). The format is in vivo, Wistar male rats. The following applies: for minimal effective dose / responders at 0.001 mg/kg / responders at 0.01 mg/kg / responders at 0.1 mg/kg / responders at 1 mg/kg / responders at 10 mg/kg / responders at 100 mg/kg: Rattus norvegicus; for minimal effective dose: read-out: MED (minimum effective dosage), PCA inhibition; for responders at 0.001 mg/kg / responders at 0.01 mg/kg / responders at 0.1 mg/kg / responders at 1 mg/kg / responders at 10 mg/kg / responders at 100 mg/kg: po; for responders at 0.001 mg/kg: dosage 0.001 mg/kg, read-out: Number of positive zooids in one group of 3 zooids; for responders at 0.001 mg/kg / responders at 0.01 mg/kg / responders at 0.1 mg/kg / responders at 1 mg/kg / responders at 10 mg/kg / responders at 100 mg/kg / Number of positive zooids in one group of 3 zooids: positive = inhibition rate 50% or higher; for responders at 0.01 mg/kg: dosage 0.01 mg/kg; for responders at 0.01 mg/kg / responders at 0.1 mg/kg / responders at 1 mg/kg / responders at 10 mg/kg / responders at 100 mg/kg: read-out: Number of positive zooids in one group of 3 zooids (converted); for responders at 10 mg/kg: dosage 10 mg/kg; for responders at 100 mg/kg: dosage 100 mg/kg. Here is the method: Antiallergic activity was investigated by a homologous PCA (passive cutaneous anaphlaxis) of rats for 48 hours, where Wistar male rats having body weights of 180 to 220 g were used for sampling of antiserum and Wistar male rats having body weights of 120 to 140 g were used for the PCA test.
Anti-egg white albumin (EWA) rat serum was prepared according to Stotland and Share's method [Canad. J. Physiol. Pharmacol. 52, 1114 (1974)]. That is, 1 mg of EWA was mixed with 20 mg of aluminum hydroxide gel and 0.5 ml of mixed vaccine of pertussis, diphtheria and tetanus, and the mixture was subcutaneously administered in four portions into rat's footpad. After 14 days, blood was sampled from the carotid artery, and the serum was separated from the sampled blood, and preserved under freezing at -80° C. The potency of the antiserumin in the homologous PCA for 48 hours was 1:32.
Groups each consisting of 3 rats were used, and 0.05 ml of anti-EWA rat serum diluted with a physiological saline solution to 8 times as much was incutaneously injected each at two positions of depilated back to make the animals passively sensitised. After 47 hours, the compound of the present invention, or its solution (physiological saline solution or CMC solution) was orally administered. One hour thereafter, 0.5 ml/100 g of 1% Evan's blue physiological saline solution containing 2 mg of the antigen EWA was administered into the tail vein, and 30 minutes thereafter, the animals were sacrificed by exsanguination. Then, the skins were stripped and the amount of leaked pigment at the blue-dyed parts was measured according to the Katayama et al method [Microbiol. Immunol. 22, 89 (1978)]. That is, the blue-dyed parts were cut out by scissors, and placed in test tubes containing 1 ml of 1N KOH and incubated at 37° C. for 24 hours. Then, 9 ml of a mixture of 0.6N phosphoric acid and acetone (5:13) was added thereto, and the mixture was shaked and centrifuged at 2,500 rpm for 10 minutes. Absorbancy of the supernatant at […] was measured, and the amount of leaked pigment was quantitatively determined by the calibration curve prepared in advance. An average of measurements at the two position was made a value for one zooid, and inhibition rate for the individual zooid was calculated by the following formula: [formula]

In another data set the test system is Rat carageenin paw edema. In words: Carageenin paw edema test (antiinflammatory activity). The format is in vivo, Wistar male rats. The settings on record: average value in one group of 3 rats, 100 mg/kg oral administration. Here is the method: Antiinflammatory activity was examined according to Rat carageenin paw edema [J. Pathol. 104, 15-29 (1971)], Groups each consisting of three Wistar male rats weighing 150 g were used. The test compound was suspended in 0.3% aqueous CMC solution and the suspension was given orally. Sixty minutes later, 0.1 ml of 0.1% carageenin was subcutaneously injected in a hind paw to form carageenin paw edema.
The volume of paw was measured before the administration and 3 hours after the administration of carageenin with plethysmometer.
The ratio of the volume 3 hours after the administration to that before the administration of carageenin was calculated and each ratio is compared with the ratio of control group (0.3% CMC was administered) to give the edema inhibiting percentage.

[2] abbreviates: mice, mortality 7 days after administration.
The mark [3] stands for this setting: minimum dosage with positive case in at least one of three rats.

Turning to `CN(C)CC/C=C1\c2ccccc2COc2ccc(CCC(=O)O)cc21` [Compound 28 (trans), Trans-3-[11-(3-dimethylaminopropylidene)-6,11-dihydrodibenz[b,e]oxepin-2-yl]-propionic acid], in the data set with dd, male mice (setting [2]), the “Acute toxicity (MLD), ip” value is reported as over 100 mg/kg and the “Acute toxicity (MLD), po” value is reported as over 300 mg/kg. In addition, in data set [1] (setting [3]), the minimal effective dose is 0.01 mg/kg. For the same molecule, in data set [1], the responders at 0.001 mg/kg turned out to be 0%, the responders at 0.01 mg/kg was 33.3%, the responders at 10 mg/kg is 100% and the responders at 100 mg/kg is 100%. Besides, the responders at 0.1 mg/kg in data set [1] (dosage 0.1 mg/kg) was 66.7%. Also, in data set [1] (dosage 1 mg/kg), the responders at 1 mg/kg is 66.7%.

With `CCN(CC)CCN=C1c2ccccc2COc2ccc(CCC(=O)O)cc21` [Compound 43, 3-[11-(2-Diethylaminoethyl)imino-6,11-dihydrodibenz[b,e]oxepin-2-yl]-propionic acid], in the data set on dd, male mice (setting [2]), the “Acute toxicity (MLD), ip” value was over 100 mg/kg and the “Acute toxicity (MLD), po” value is reported as over 300 mg/kg. Besides, the minimal effective dose in data set [1] (setting [3]) worked out at 10 mg/kg. Moreover, the responders at 0.1 mg/kg in data set [1] (dosage 0.1 mg/kg) was 0%. Moreover, the responders at 1 mg/kg in data set [1] (dosage 1 mg/kg) is 0%. Moreover, in data set [1], the responders at 10 mg/kg is 66.7% and the responders at 100 mg/kg was 100%.

For `CN(C)CCCN=C1c2ccccc2COc2cc(CC(=O)O)ccc21` [Compound 49, 11-(3-Dimethylaminopropyl)imino-6,11-dihydrodibenz[b,e]oxepin-3-acetic acid], the “Carageenin paw edema inhibiting percentage” value in the data set on Rat carageenin paw edema is recorded as 24.1%.

Take `CN(C)CCN=C1c2ccccc2COc2cc(CC(=O)O)ccc21` [Compound 47, 11-(2-Dimethylaminoethyl)imino-6,11-dihydrodibenz[b,e]oxepin-3-acetic acid]: in the data set on Rat carageenin paw edema, the “Carageenin paw edema inhibiting percentage” value is recorded as 46.0%.

In the case of `CN(C)CC/C=C1/c2ccccc2COc2ccc(CC(=O)O)cc21` [Compound 20 (cis), Cis-11-(3-dimethylaminopropylidene)-6,11-dihydrodibenz[b,e]oxepin-2-acetic acid], in the data set with dd, male mice (setting [2]), the “Acute toxicity (MLD), ip” value was over 100 mg/kg and the “Acute toxicity (MLD), po” value is given as over 300 mg/kg. For the same molecule, the minimal effective dose in data set [1] (setting [3]) came out at 0.01 mg/kg. In data set [1], the responders at 0.001 mg/kg came to 0%, the responders at 0.01 mg/kg was 33.3%, the responders at 10 mg/kg is 100% and the responders at 100 mg/kg is 100%. The responders at 0.1 mg/kg in data set [1] (dosage 0.1 mg/kg) was 100%. The responders at 1 mg/kg in data set [1] (dosage 1 mg/kg) is 100%.

With `CN(C)CCCC=C1c2ccccc2COc2ccc(CC(=O)O)cc21` [Compound 22, 11-(4-Dimethylaminobutylidene)-6,11-dihydrodibenz[b,e]oxepin-2-acetic acid], in the data set with dd, male mice (setting [2]), the “Acute toxicity (MLD), ip” value is over 100 mg/kg and the “Acute toxicity (MLD), po” value was over 300 mg/kg. Moreover, the minimal effective dose in data set [1] (setting [3]) is 0.1 mg/kg. Further, in data set [1], the responders at 0.01 mg/kg was 0%, the responders at 10 mg/kg was 100% and the responders at 100 mg/kg is 100%. Also, the responders at 0.1 mg/kg in data set [1] (dosage 0.1 mg/kg) is 33.3%. Also, in data set [1] (dosage 1 mg/kg), the responders at 1 mg/kg is 66.7%.

With `CN(C)CC/C=C1\c2ccccc2COc2ccc(CCO)cc21` [Compound 31 (trans), Trans-11-(3-dimethylaminopropylidene)-2-(2-hydroxyethyl)-6,11-dihydrodibenz[b,e]oxepin], the “Acute toxicity (MLD), ip” value with dd, male mice (setting [2]) is recorded as over 100 mg/kg. The “Acute toxicity (MLD), po” value in the data set on dd, male mice (setting [2]) was over 300 mg/kg. Moreover, the figures for the “Number of positive zooids in one group of 3 zooids” value (“Number of positive zooids” below) in data set [1] (dosage 0.1 mg/kg) and in data set [1] (dosage 1 mg/kg) were 3/3 and 2/3, respectively. Further, the “MED (minimum effective dosage), PCA inhibition” value in data set [1] (setting [3]) was 0.1 mg/kg.

`O=C(O)c1ccc2c(c1)C(=CCCN1CCOCC1)c1ccccc1CO2` [Compound 56, 11-(3-Morpholinopropylidene)-6,11-dihydrodibenz[b,e]-oxepin-2-carboxylic acid]: in the data set on dd, male mice (setting [2]), the “Acute toxicity (MLD), ip” value was over 100 mg/kg and the “Acute toxicity (MLD), po” value was over 300 mg/kg. For the same molecule, the minimal effective dose in data set [1] (setting [3]) amounted to 0.1 mg/kg. Also, in data set [1], the responders at 0.01 mg/kg was 0%, the responders at 10 mg/kg is 100% and the responders at 100 mg/kg was 100%. In data set [1] (dosage 0.1 mg/kg), the responders at 0.1 mg/kg is 33.3%. The responders at 1 mg/kg in data set [1] (dosage 1 mg/kg) is 100%.

Regarding `CN(C)CC/C=C1\c2ccccc2COc2ccc(CCO)cc21` [Compound 31, 11-(3-Dimethylaminopropylidene)-2-(2-hydroxyethyl)-6,11-dihydrodibenz[b,e]oxepin], in the data set with dd, male mice (mouse, in vivo, 10080 min), the “Acute toxicity (MLD), ip” value was over 100 mg/kg and the “Acute toxicity (MLD), po” value is over 300 mg/kg. In addition, the minimal effective dose in data set [1] (setting [3]) was determined as 0.1 mg/kg. In data set [1], the responders at 0.01 mg/kg is 0%, the responders at 10 mg/kg was 100% and the responders at 100 mg/kg is 100%. The “Number of positive zooids” value in data set [1] (dosage 0.1 mg/kg, listed as 31') was 1/3. For the same molecule, the “Number of positive zooids” value in data set [1] (dosage 1 mg/kg, listed as 31') is recorded as 3/3.

`CCN(CC)CC/C=C1/c2ccccc2COc2ccc(C(=O)O)cc21` [Compound 5, 11-(3-Diethylaminopropylidene)-6,11-dihydrodibenz[b,e]oxepin-2-carboxylic acid]: in the data set on dd, male mice (mouse, in vivo, 10080 min), the “Acute toxicity (MLD), ip” value is over 100 mg/kg and the “Acute toxicity (MLD), po” value is given as over 300 mg/kg. For the same molecule, the minimal effective dose in data set [1] (setting [3]) worked out at 1 mg/kg. Further, in data set [1], the responders at 0.01 mg/kg was 0%, the responders at 10 mg/kg is 100% and the responders at 100 mg/kg is 100%. For the same molecule, the responders at 1 mg/kg in data set [1] (dosage 1 mg/kg) is 100%.

Regarding `CCN(CC)CCN=C1c2ccccc2COc2ccc(C(=O)O)cc21` [Compound 35, 11-(2-Diethylaminoethyl)imino-6,11-dihydrodibenz[b,e]oxepin-2-carboxylic acid], in the data set with dd, male mice (setting [2]), the “Acute toxicity (MLD), ip” value was over 100 mg/kg and the “Acute toxicity (MLD), po” value is reported as over 300 mg/kg. In addition, the minimal effective dose in data set [1] (setting [3]) was determined as 10 mg/kg. Also, in data set [1] (dosage 1 mg/kg), the responders at 1 mg/kg was 0%. In data set [1], the responders at 10 mg/kg is 33.3% and the responders at 100 mg/kg was 100%.

Take `CN(C)CC/C=C1/c2ccccc2COc2ccc(C(=O)O)cc21` [Compound 3 (cis), Cis-11-(3-dimethylaminopropylidene)-6,11-dihydrodibenz[b,e]oxepin-2-carboxylic acid]: in the data set on dd, male mice (setting [2]), the “Acute toxicity (MLD), ip” value is reported as over 100 mg/kg and the “Acute toxicity (MLD), po” value is recorded as over 300 mg/kg. Moreover, the minimal effective dose in data set [1] (setting [3]) was 0.1 mg/kg. In data set [1], the responders at 0.01 mg/kg was 0%, the responders at 10 mg/kg was 100% and the responders at 100 mg/kg is 100%. Also, the responders at 0.1 mg/kg in data set [1] (dosage 0.1 mg/kg) was 100%. For the same molecule, in data set [1] (dosage 1 mg/kg), the responders at 1 mg/kg was 100%.

Consider `CN(C)CCC=C1c2ccccc2COc2ccc(CCC(=O)O)cc21` [Compound 28, 3-[11-(3-Dimethylaminopropylidene)-6,11-dihydrodibenz[b,e]oxepin-2-yl]-propionic acid], for which, in the data set on dd, male mice (setting [2]), the “Acute toxicity (MLD), ip” value was over 100 mg/kg and the “Acute toxicity (MLD), po” value is over 300 mg/kg. Besides, the minimal effective dose in data set [1] (setting [3]) turned out to be 0.01 mg/kg. Besides, in data set [1], the responders at 0.001 mg/kg was 0%, the responders at 0.01 mg/kg was 66.7%, the responders at 10 mg/kg is 100% and the responders at 100 mg/kg was 100%. Also, in data set [1] (dosage 0.1 mg/kg), the responders at 0.1 mg/kg was 66.7%. In data set [1] (dosage 1 mg/kg), the responders at 1 mg/kg was 100%.
